Measurements from patent US9751919B2, “Antimicrobial compositions comprising a hyaluronic acid binding peptide and a β-lactam antibiotic” (priority 2012, dated 2017).
Values joined by “and” are separate entries in the source; they are usually repeats but may differ in a detail not shown here. Equal entries are not always repeated. Marks after values point to notes of the source that are not given here.

Experiments:
[1] = tested on: E. coli; experiment: Checkerboard assay (FIC index); format: cell-based, Escherichia coli; details: antibiotic combined with PEP35
Method: Checkerboard assays were carried out as described by Bonapace et al.
Diagnostic Microbiology and Infectious Diseases 2002; 44:363-366. In brief, checkerboard assays were performed in 96 well microtitre trays using an 8-by-8 well configuration. […] 96-well custom designed microtitre plates contained 100 ul/well of cation adjusted Mueller-Hinton broth (eg. for Enterobacteriaceae) with or without lysed horse blood (2-5% V/V) [eg. for S. pneumoniae] and were inoculated to achieve a final concentration of approximately 5×10^5 CFU/ml and incubated in ambient air for 24 hours prior to reading. Colony counts were performed periodically to confirm inocula. Quality control was performed every two weeks using a variety of ATCC QC organisms including; S. pneumoniae 49619, S. aureus 29213, E. faecalis 29212, E. coli 25922 and P. aeruginosa 27853. […] All peptides were assessed for synergy with β-lactams and vancomycin. For all antimicrobials as well as the peptides, CLSI criteria were used.
(§1) The fractional inhibitory concentration index (FIC index) was used to interpret synergy, antagonism or additivity/indifference. FIC index=FIC of drug A+FIC of drug B where:
The FIC of drug A and drug B was calculated as follows, FIC drug A=MIC of drug A in combination/MIC of drug A alone and FIC of drug B=MIC of drug B in combination/MIC of drug B alone. Synergy was defined as FIC index ≦0.5, additivity/indifference defined as a FIC between 0.5 and 4 and antagonism defined as an FIC index >4.
(§2) The checkerboard assays were carried out as described by Eliopoulos and Moellering (Chapter 9) in Antibiotic in Laboratory Medicine, Lorian Ed. 1996 as well as Bonapace et al. Diagnostic Microbiology and Infectious Diseases 2002; 44:363-366 and Bonapace et al. Diagnostic Microbiology and Infectious Diseases 2000; 38:43-50. In brief, checkerboard assays were performed in 96 well microtitre trays using an 8-by-8 well configuration. […] 96-well custom designed microtitre plates contained 100 ul/well of cation adjusted Mueller-Hinton broth (eg. for Enterobacteriaceae) with or without lysed horse blood (2-5% V/V) [eg. for S. pneumoniae] and were inoculated to achieve a final concentration of approximately 5×10^5 CFU/ml and incubated in ambient air for 24 hours prior to reading. Colony counts were performed periodically to confirm inocula. Quality control was performed every two weeks using a variety of ATCC QC organisms including; S. pneumoniae 49619, S. aureus 29213, E. faecalis 29212, E. coli 25922 and P. aeruginosa 27853. For all antimicrobials as well as PEP35, CLSI criteria was used.
(§3) The FIC of drug A and drug B is calculated as follows, FIC drug A=MIC of drug A in combination/MIC of drug A alone and FIC of drug B=MIC of drug B in combination/MIC of drug B alone. Synergy is defined as FIC index ≦0.5, additivity/indifference FIC >0.5-4 and antagonism FIC index >4.
(§4) Antimicrobials used included PEP35, cefazolin, ceftriaxone, vancomycin, linezolid, tigecycline and daptomycin versus Gram-positive cocci and PEP35, gentamicin, levofloxacin, piperacillin/tazobactam, meropenem and colistin (Polymyxin E) versus Gram-negative bacilli. These agents were obtained as laboratory grade powders from their respective manufacturers. Stock solutions were prepared and dilutions made as described by the Clinical Laboratory Standards Institute (2005 CLSI).
Organisms included Gram-positive cocci (2 strains of each): Methicillin-susceptible Staphylococcus aureus (MSSA), community-associated (CA) and healthcare-associated (HA) methicillin-resistant Staphylococcus aureus (MRSA), vancomycin-intermediate Staphylococcus aureus (VISA), vancomycin-resistant Staphylococcus aureus (VRSA), methicillin-resistant Staphylococcus epidermidis (MRSE), Streptococcus pyogenes, Streptococcus agalactiae, Streptococcus pneumoniae, Enterococcus faecalis, Enterococcus faecium and vancomycin-resistant enterococcus (VRE). […]

[2] = tested on: P. mirabilis; experiment: Checkerboard assay (FIC index); format: cell-based, Proteus mirabilis; details: antibiotic combined with PEP35
Method: as §2, §1, §3, §4
(§5) Organisms included Gram-positive cocci (2 strains of each): Methicillin-susceptible Staphylococcus aureus (MSSA), community-associated (CA) and healthcare-associated (HA) methicillin-resistant Staphylococcus aureus (MRSA), vancomycin-intermediate Staphylococcus aureus (VISA), vancomycin-resistant Staphylococcus aureus (VRSA), methicillin-resistant Staphylococcus epidermidis (MRSE), Streptococcus pyogenes, Streptococcus agalactiae, Streptococcus pneumoniae, Enterococcus faecalis, Enterococcus faecium and vancomycin-resistant enterococcus (VRE). Gram-negative bacilli tested (2 strains of each) included: E. coli, Pseudomonas aeruginosa, Klebsiella pneumoniae, K. oxytoca, Enterobacter cloacae, P. mirabilis and Stenotrophomonas maltophilia. MIC testing, following two subcultures from frozen stock were determined by the CLSI 2005 approved broth microdilution method.

[3] = tested on: S. maltophilia; experiment: Checkerboard assay (FIC index); format: cell-based, Stenotrophomonas maltophilia; details: antibiotic combined with PEP35; S. maltophilia 73062
Method: as §2, §1, §3, §4, §5

[4] = tested on: K. pneumoniae; experiment: Checkerboard assay (FIC index); format: cell-based, Klebsiella pneumoniae; details: antibiotic combined with PEP35
Method: as §2, §1, §3, §4, §5

[5] = tested on: P. mirabilis; experiment: MIC, agent alone (broth microdilution); format: cell-based, Proteus mirabilis; details: footnote to Table 12; P. mirabilis 80267 and 81569
Description: as §5

[6] = tested on: E. cloacae; experiment: Checkerboard assay (FIC index); format: cell-based, Enterobacter cloacae; details: antibiotic combined with PEP35
Method: as §2, §1, §3, §4, §5

[7] = tested on: P. aeruginosa; experiment: Checkerboard assay (FIC index); format: cell-based, Pseudomonas aeruginosa; details: antibiotic combined with PEP35
Method: as §2, §1, §3, §4, §5

[8] = tested on: K. oxytoca; experiment: Checkerboard assay (FIC index); format: cell-based, Klebsiella oxytoca; details: antibiotic combined with PEP35
Method: as §2, §1, §3, §4, §5

## colistin (Polymyxin E)
[1]; E. coli 69716
  Avg ΣFIC (range): 0.71 (0.31-1.06)
[1]; E. coli 70752
  Avg ΣFIC (range): 0.81 (0.31-1.25)
[2]; P. mirabilis 80267
  Avg ΣFIC (range): >1**
[2]; P. mirabilis 81569
  Avg ΣFIC (range): >1**
[3]
  Avg ΣFIC (range): 0.88 (0.53-1.25)
[4]; K. pneumoniae 70508
  Avg ΣFIC (range): 0.67 (0.31-1.06)
[4]; K. pneumoniae 77081
  Avg ΣFIC (range): 0.61 (0.18-1.06)
[5]
  MIC: COL MIC > 4096
[6]; E. cloacae 80194
  Avg ΣFIC (range): 0.70 (0.31-1.12)
[6]; E. cloacae 83128
  Avg ΣFIC (range): 0.77 (0.5-1.06)
[7]; P. aeruginosa 70849
  Avg ΣFIC (range): 0.70 (0.28-1.12)
[7]; P. aeruginosa 71841
  Avg ΣFIC (range): 0.89 (0.53-1.25)
[8]; K. oxytoca 75316
  Avg ΣFIC (range): 0.41 (0.24-0.56) and 0.62 (0.18-1.06) and 0.65 (0.18-1.12)
[8]; K. oxytoca 76874
  Avg ΣFIC (range): 0.83 (0.31-2.03)
